Our source for the Activity and LD99 values is ChEMBL document CHEMBL1144834, “Acremolides A-D, lipodepsipeptides from an Australian marine-derived fungus, Acremonium sp” (2008).

One experiment deals with NS1. In words: (§1) Cytotoxicity against mouse NS1 cells. Format: functional.
The subject of a further experiment is Candida albicans. In words: Antifungal activity against Candida albicans. It is filed as functional, organism-based.
In another experiment the test system is Bacillus subtilis. The experiment in a line: Antibacterial activity against Bacillus subtilis. Format: functional, organism-based.
Experiment [1] in a line: as §1. Format: functional.

Active and inactive are the calls of the source. The calls are words filed in the database; no cut-off is given here.

Regarding `CC(O)CCCCC(C)C1CC(O)C(C)C(=O)N[C@H](Cc2ccccc2)C(=O)N2CCC[C@H]2C(=O)O1` (stereo not given in full), the result in the experiment with NS1, with Candida albicans and with Bacillus subtilis was inactive.
For `CC(=O)O[C@H]1C(=O)/C=C/C(=O)[C@@]23C(=O)N[C@@H](Cc4c[nH]c5ccccc45)[C@@H]2C(C)=C(C)[C@@H](O)[C@@H]3/C=C/C[C@H](C)/C=C\1C` [19-O-ACETYLCHAETOGLOBOSIN B], in experiment [1], the LD99 was determined as 1.6 µg/mL.
As to `CC(=O)CCCCC(C)C1CC(O)C(C)C(=O)N[C@H](Cc2ccccc2)C(=O)N2CCC[C@H]2C(=O)O1` (stereo not given in full), the outcome with NS1, in the experiment with Candida albicans and in the experiment on Bacillus subtilis was inactive.
In turn, `C=C1[C@@H](C)[C@H]2[C@H](Cc3c[nH]c4ccccc34)NC(=O)[C@]23C(=O)/C=C/C(=O)[C@H](OC(C)=O)/C(C)=C\[C@@H](C)C/C=C/[C@H]3[C@@H]1O` yielded an LD99 in experiment [1] of 0.8 µg/mL.
In the case of `CC(O)CCCCC(C)C1CC(O)C(C)C(=O)N[C@H](C(C)C)C(=O)N2CCC[C@H]2C(=O)O1` (stereo not given in full), the result in the experiment with NS1, in the experiment with Candida albicans and in the experiment on Bacillus subtilis was inactive.
For the compound `C/C=C/c1cccc(O)c1CO`, the result in the experiment on NS1 was inactive.
For `CC[C@@H](C)[C@H]1NC(=O)C(C)C(O)CC(C(C)CCCCC(C)O)OC(=O)[C@@H]2CCCN2C1=O` (stereo not given in full), the result in the experiment with NS1, in the experiment on Candida albicans and with Bacillus subtilis was inactive.
